This is an account of results in patent publication US20140242590A1, “FLT3 MUTATIONS ASSOCIATED WITH DRUG RESISTANCE IN AML PATIENTS HAVING ACTIVATING MUTATIONS IN FLT3” (THE REGENTS OF THE UNIVERSITY OF CALIFORNIA, priority 2011, published 2014).

Structures are written as SMILES.

The test system of assay [1] is FLT3-ITD mutant isoforms. The assay is described as follows: Immunoblotting with anti-phospho-FLT3 / anti-FLT3 on Ba/F3 lysates (cell-based biochemical assay). Particulars: five AC220-resistant FLT3-ITD substitutions; 90 minutes exposure. On the technique in general: A western blot detects proteins with antibodies after separation by electrophoresis.
Experimental: Exponentially growing Ba/F3 cells stably expressing each mutant along with a WT FLT3-ITD control were plated in RPMI medium 1640+10% FCS supplemented with kinase inhibitor at the indicated concentration. After a 90-minute incubation, the cells were washed in phosphate buffered saline (PBS) and lysed in Cell Extraction Buffer (Invitrogen) supplemented with protease and phosphatase inhibitors. The lysate was clarified by centrifugation and quantitated by BCA assay (Thermo Scientific). Protein was subjected to sodium dodecylsulfate polyacrylamide electrophoresis and transferred to nitrocellulose membranes. Immunoblotting was performed using anti-phospho-FLT3 (Cell Signaling) and anti-FLT3 S18 antibody (Santa Cruz Biotechnology).
The test system of assay [2] is Ba/F3 cells expressing FLT3-ITD mutant isoforms. Particulars: literature report (ref 18); cited from earlier work.
Assay [3] has the same test system. The assay is described as follows: Cell-viability assay of Ba/F3 populations stably expressing FLT3-ITD mutant isoforms. The class given is cell-based. Particulars: 48 hours. As to the method: Stable Ba/F3 lines were generated by using retroviral spinfection with the appropriate mutated plasmid as outlined above, with the exception of the exclusion of polybrene. At 48 h post-infection, puromycin was added to infected cells at a concentration of 4 μg/mL. Cells were selected in the presence of puromycin for 7-10 days and subsequently IL-3 was washed twice from the cells with media and cells were selected in RPMI medium 1640+10% FCS in the absence of IL-3. Exponentially growing BaiF3 cells (5×10^4) were plated in each well of a 24-well dish with 1 ml of RPMI 1640+10% FCS containing the appropriate concentration of drug as indicated in triplicate. Cells were allowed to expand for 2 days and were counted by using a Vi-cell XR automated cell viability analyzer (Beckman Coulter). The mean number of viable cells at varying concentrations of drug was normalized to the median number of viable cells in the no-drug sample for each mutant. Error bars represent the standard deviation. Numerical IC50 values were generated using non-linear best-fit regression analysis using Prism 5 software (GraphPad).

Consider `CNC(=O)c1cc(Oc2ccc(NC(=O)Nc3ccc(Cl)c(C(F)(F)F)c3)cc2)ccn1` [sorafenib], for which the “cross-resistance of AC220-resistant mutations in biochemical assay (phospho-FLT3)” value in assay [1] is “substantial cross-resistance”. Besides, the “sensitivity of FLT3-ITD/D835V in vitro, previously reported” value in assay [2] is “retain sensitivity”. The “resistance conferred by D835F mutation in vitro” value in assay [3] (FLT3-ITD/D835F vs FLT3-ITD) was “cross-resistance”. In addition, in assay [3] (five AC220-resistant FLT3-ITD substitutions), the “cross-resistance of AC220-resistant mutations in cell-based growth assay” value is “substantial cross-resistance”.
